Details: Liquid, Capillary tube (Ostwald / Ubbelohde) method

CC(C)C [2-methylpropane]
Details | kinematic viscosity [m2/s]
285.13 K | 3.1e-07
290.11 K | 2.95e-07
295.11 K | 2.87e-07
300.41 K | 2.72e-07
303.37 K | 2.67e-07
309.08 K | 2.55e-07
313.12 K | 2.46e-07
315.07 K | 2.42e-07
318.2 K | 2.38e-07
320.12 K | 2.35e-07
323.83 K | 2.25e-07
326.11 K | 2.21e-07
330.11 K | 2.14e-07
333.14 K | 2.07e-07
335.12 K | 2.09e-07
340.12 K | 1.97e-07
340.15 K | 1.97e-07
345.15 K | 1.9e-07

CCF [fluoroethane]
Details | kinematic viscosity [m2/s]
233.15 K | 2.93e-07
238.15 K | 2.81e-07
243.15 K | 2.7e-07
248.11 K | 2.58e-07
253.15 K | 2.46e-07
258.12 K | 2.37e-07
263.17 K | 2.28e-07
268.16 K | 2.17e-07
273.16 K | 2.09e-07
278.16 K | 2.01e-07
283.15 K | 1.92e-07
288.13 K | 1.85e-07
293.18 K | 1.78e-07
298.15 K | 1.72e-07
303.12 K | 1.66e-07
308.11 K | 1.62e-07
313.15 K | 1.54e-07
318.15 K | 1.51e-07
320.16 K | 1.49e-07
328.16 K | 1.41e-07
333.15 K | 1.37e-07
338.15 K | 1.31e-07
343.13 K | 1.28e-07
348.15 K | 1.23e-07
353.17 K | 1.21e-07
355.16 K | 1.2e-07
360.16 K | 1.16e-07
366.08 K | 1.12e-07
371.36 K | 1.08e-07

— the NIST ThermoML archive (doi:10.1007/s10765-012-1309-7)
